# From patent US9085605B2, “Chemical synthesis and anti-tumor and anti-metastatic effects of dual functional conjugate” (Shenzhen Salubris Pharmaceuticals Co., Ltd., priority 2010, dated 2015)
# Values joined by “and” are separate entries in the source; they are usually repeats but may differ in a detail not shown here. Identical values can stand only once.
# What was measured:
# [1] = Toxicity test by single dose, intravenous; assay type: in vivo, ICR mice
# [2] = tested on: human breast cancer line MDA-MB-231; assay: Tumor growth inhibition in nude mice xenograft model, MDA-MB-231
# Description: • 1. […] Drug administration dose were set as: 10 mg/kg, 15 mg/kg, and 20 mk/kg, drug administration volume was 0.2 mL/20 g. • 2. […] MDA [Peptide (P) 0.54 mg/mL (0.001M), Example 10], a colorless and clear liquid, was prepared by the commission, can be directly used after the repackaging in a sterile condition, stored at 4° C. […] Certificate NO. […] SYSK (BeiJing) 2004-0001. Experiment Methods:
# The mice were divided into groups and administrated drug after 11 days.
# The mice were divided into eight groups, each group had 6-8 mice. The groups contained Negative control. […] After grouping, all mice were administrated with drug by intraperitoneal injection once a day depends on their body weight.
# Other groups were administered with drugs for 24 times successively. The experiment was completed 24 h after the last administration.
# The mice were sacrificed, and tumors were isolated and their weight was measured, and the inhibition rate of tumor growth by drugs were calculated. […] Calculation methods and formula were omitted.
# [3] = 112.5 mg·kg^−1 i.v. single dose
# [4] = 30 mg/kg × 12, i.p. once a day, then withdrawn, larger starting tumors
smiles,measurement,setting,value
CC(=O)O[C@H]1C(=O)[C@@]2(C)[C@H]([C@H](OC(=O)c3ccccc3)[C@]3(O)C[C@H](OC(=O)[C@H](OC(=O)CCC(=O)NCCCCC(NC(=O)CC[C@H](NC(=O)C(C)NC(=O)/C=C/c4ccc(Cl)cc4)C(N)=O)C(N)=O)[C@@H](NC(=O)c4ccccc4)c4ccccc4)C(C)=C1C3(C)C)[C@]1(OC(C)=O)CO[C@@H]1C[C@@H]2O (some centres unmarked) [MTC-220],Anatomical examination of organs,[1]; [3],no sign of abnormal changes
same,Body weight compared with control group,[1]; [3],not significantly different
same,Symptoms after injection,[1]; [3],"voluntary activities of mice in administered group were reduced, some mice showed jumping symptoms"
same,Time to recovery from symptoms,[1]; [3],about 10 min
same,Death,"[1]; 112.5 mg·kg^−1 i.v. single dose, 14 days observation",no death occured
same,MTD at 14 days,"[1]; mouse, in vivo, 112.5 mg·kg^−1, single intravenous injection, ICR mice",> 112 mg/kg
same,Body weight Beginning,"[2]; 10 mg/kg × 24, i.p. once a day",17.4 ± 1.47 g
same,Body weight End,"[2]; 10 mg/kg × 24, i.p. once a day",20.6 ± 1.64 g
same,RTV,"[2]; 10 mg/kg × 24, i.p. once a day",12.62 ± 5.924
same,T/C,"[2]; 10 mg/kg × 24, i.p. once a day",70.0%
same,TGI,"[2]; 10 mg/kg × 24, i.p. once a day",37.3%
same,Tumor volume Beginning,"[2]; 10 mg/kg × 24, i.p. once a day",135 ± 70.6 mm^3
same,Tumor volume End,"[2]; 10 mg/kg × 24, i.p. once a day",1655 ± 929.4 mm^3
same,Tumor weight,"[2]; 10 mg/kg × 24, i.p. once a day",1.78 ± 1.016 g
same,Body weight increase compared to the beginning of the grouping,"[2]; 15 mg/kg × 24, end of the experiment",2.7 g
same,Body weight Beginning,"[2]; 15 mg/kg × 24, i.p. once a day",17.9 ± 0.88 g
same,Body weight End,"[2]; 15 mg/kg × 24, i.p. once a day",20.6 ± 0.91 g
same,RTV,"[2]; 15 mg/kg × 24, i.p. once a day",7.12 ± 4.064
same,T/C,"[2]; 15 mg/kg × 24, i.p. once a day",39.5% and 37.5% and 39.49%
same,TGI,"[2]; 15 mg/kg × 24, i.p. once a day",57.4%
same,Tumor volume Beginning,"[2]; 15 mg/kg × 24, i.p. once a day",148 ± 80.5 mm^3
same,Tumor volume End,"[2]; 15 mg/kg × 24, i.p. once a day",967 ± 590.4 mm^3
same,Tumor weight,"[2]; 15 mg/kg × 24, i.p. once a day",1.21 ± 0.813 g
same,Body weight increase compared to the beginning of the grouping,"[2]; 20 mg/kg × 24, end of the experiment",1.9 g
same,Body weight Beginning,"[2]; 20 mg/kg × 24, i.p. once a day",17.0 ± 1.11 g
same,Body weight End,"[2]; 20 mg/kg × 24, i.p. once a day",18.9 ± 1.58 g
same,RTV,"[2]; 20 mg/kg × 24, i.p. once a day",4.58 ± 2.456
same,T/C,"[2]; 20 mg/kg × 24, i.p. once a day",25.40%
same,TGI,"[2]; 20 mg/kg × 24, i.p. once a day",72.2%
same,Tumor volume Beginning,"[2]; 20 mg/kg × 24, i.p. once a day",133 ± 57.6 mm^3
same,Tumor volume End,"[2]; 20 mg/kg × 24, i.p. once a day",642 ± 482.3 mm^3
same,Tumor weight,"[2]; 20 mg/kg × 24, i.p. once a day",0.79 ± 0.654 g
same,Body weight increase compared to the beginning of the grouping,"[2]; 30 mg/kg × 12, end of the experiment",2.6 g
same,Body weight Beginning,[2]; [4],17.5 ± 1.09 g
same,Body weight End,[2]; [4],20.1 ± 0.98 g
same,RTV,[2]; [4],1.11 ± 1.366
same,T/C,[2]; [4],6.16%
same,TGI,[2]; [4],>87.0%
same,Tumor volume Beginning,[2]; [4],340 ± 58.4 mm^3
same,Tumor volume End,[2]; [4],391 ± 480.5 mm^3
same,Tumor weight,[2]; [4],0.37 ± 0.413 g
